Assays:
Experiment in all cases: relative viability (nuclei count vs DMSO), 5 days (fraction); higher = more cells survive
Mirin + Pemetrexed = compound: N=C1NC(=O)/C(=C/c2ccc(O)cc2)S1 [Mirin] + Nc1nc2[nH]cc(CCc3ccc(C(=O)N[C@@H](CCC(=O)O)C(=O)O)cc3)c2c(=O)[nH]1 [Pemetrexed] (partner 0.2 µM)
Procedure, shortened: (§1)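 One day after seeding in 1536-well plates, lung cancer cell lines were dosed by pin tool. Dosing was either single-drug or a fixed anchor-drug dose plus five library-drug doses (not always all listed) in √10 steps. After 5 days, nuclei were stained in one fix-and-stain step and counted on 4× images, and relative viability is the nuclei count of treated wells over that of vehicle wells, given as the median of duplicate plates.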

Mirin + Dasatinib = compound: N=C1NC(=O)/C(=C/c2ccc(O)cc2)S1 [Mirin] + Cc1nc(Nc2ncc(C(=O)Nc3c(C)cccc3Cl)s2)cc(N2CCN(CCO)CC2)n1 [Dasatinib] (partner 0.075 µM)
Procedure, shortened: as §1

Mirin + Foretinib = compound: N=C1NC(=O)/C(=C/c2ccc(O)cc2)S1 [Mirin] + COc1cc2c(Oc3ccc(NC(=O)C4(C(=O)Nc5ccc(F)cc5)CC4)cc3F)ccnc2cc1OCCCN1CCOCC1 [Foretinib] (partner 0.25 µM)
Procedure, shortened: as §1

Mirin + Navitoclax = compound: N=C1NC(=O)/C(=C/c2ccc(O)cc2)S1 [Mirin] + CC1(C)CCC(c2ccc(Cl)cc2)=C(CN2CCN(c3ccc(C(=O)NS(=O)(=O)c4ccc(N[C@H](CCN5CCOCC5)CSc5ccccc5)c(S(=O)(=O)C(F)(F)F)c4)cc3)CC2)C1 [Navitoclax] (partner 0.5 µM)
Procedure, shortened: as §1

| Cell Line | relative viability (Mirin + Pemetrexed; first compound 0.25 µM) | relative viability (Mirin + Pemetrexed; first compound 0.7906 µM) | relative viability (Mirin + Pemetrexed; first compound 2.5 µM) | relative viability (Mirin + Pemetrexed; first compound 7.906 µM) | relative viability (Mirin + Pemetrexed; first compound 25 µM) | relative viability (Mirin + Dasatinib; first compound 0.25 µM) | relative viability (Mirin + Dasatinib; first compound 0.7906 µM) | relative viability (Mirin + Dasatinib; first compound 2.5 µM) | relative viability (Mirin + Dasatinib; first compound 7.906 µM) | relative viability (Mirin + Dasatinib; first compound 25 µM) | relative viability (Mirin + Foretinib; first compound 0.25 µM) | relative viability (Mirin + Foretinib; first compound 0.7906 µM) | relative viability (Mirin + Foretinib; first compound 2.5 µM) | relative viability (Mirin + Foretinib; first compound 7.906 µM) | relative viability (Mirin + Foretinib; first compound 25 µM) | relative viability (Mirin + Navitoclax; first compound 0.25 µM) | relative viability (Mirin + Navitoclax; first compound 0.7906 µM) | relative viability (Mirin + Navitoclax; first compound 2.5 µM) | relative viability (Mirin + Navitoclax; first compound 7.906 µM) | relative viability (Mirin + Navitoclax; first compound 25 µM) |
| --- | --- | --- | --- | --- | --- | --- | --- | --- | --- | --- | --- | --- | --- | --- | --- | --- | --- | --- | --- | --- |
| NCI-H358 | 0.162 | 0.176 | 0.182 | 0.161 | 0.143 | 0.2 | 0.16 | 0.161 | 0.134 | 0.13 | 0.734 | 0.742 | 0.739 | 0.565 | 0.406 |  |  |  |  |  |
| NCI-H522 | 0.799 | 1.02 | 0.764 | 1 | 0.522 | 0.814 | 0.869 | 0.845 | 0.652 | 0.648 |  |  |  |  |  |  |  |  |  |  |
| NCI-H650 | 1.05 | 0.865 | 0.928 | 0.711 | 0.94 | 0.455 | 0.391 | 0.397 |  | 0.506 | 0.834 | 1.07 | 1.06 |  | 1.13 |  |  |  |  |  |
| NCI-H661 | 0.906 | 1.01 | 0.942 | 0.953 | 0.822 | 0.985 | 0.737 | 0.884 | 0.734 | 0.697 | 1.05 | 1.06 | 1.02 | 1.07 | 0.975 |  |  |  |  |  |
| NCI-H727 |  |  |  |  |  | 0.345 | 0.285 | 0.337 | 0.4 | 0.256 | 0.9 | 0.889 | 1.18 | 1.14 | 1.12 | 0.518 | 0.473 | 0.393 | 0.728 | 0.454 |
| NCI-H1299 |  |  |  |  |  |  |  |  |  |  | 1.1 | 1.15 | 1.07 | 1.12 | 1.24 | 0.998 | 1.1 | 1.09 | 1.03 | 1.2 |
| NCI-H1563 | 0.854 | 0.898 | 0.98 | 0.745 | 0.769 | 0.536 | 0.471 | 0.481 | 0.42 | 0.428 | 0.962 | 0.974 | 0.865 | 1.03 | 0.875 |  |  |  |  |  |
| NCI-H1623 |  |  |  |  |  | 0.46 | 0.426 | 0.542 | 0.44 | 0.497 | 0.787 | 0.708 | 0.865 | 0.716 | 0.625 |  |  |  |  |  |
| NCI-H1648 | 0.76 |  | 0.853 | 0.678 | 0.55 |  |  |  |  |  |  |  |  |  |  |  |  |  |  |  |
| NCI-H1703 |  |  |  |  |  |  |  |  |  |  | 0.309 | 0.31 | 0.368 | 0.413 | 0.3 | 1.27 | 1.21 | 1.26 |  | 0.685 |
| NCI-H1792 | 0.772 | 0.653 | 1.15 | 0.708 | 0.844 | 0.768 | 0.86 | 0.777 |  | 0.632 |  |  |  |  |  | 0.611 | 0.529 | 0.68 | 0.583 | 0.695 |
| NCI-H2342 | 0.728 | 0.801 | 0.769 |  | 0.735 | 0.35 | 0.342 | 0.327 | 0.289 | 0.317 | 1.14 | 1.11 | 1.15 | 1.03 | 0.861 |  |  |  |  |  |
| SW 900 | 0.505 | 0.494 | 0.47 | 0.494 | 0.48 | 0.513 | 0.521 | 0.54 | 0.542 | 0.47 | 1.02 | 1.19 | 1.1 | 0.866 | 0.827 |  |  |  |  |  |
